The values below come from paper PMC11123921, “Synthesis and Evaluation of 5-(Heteroarylmethylene)hydantoins as Glycogen Synthase Kinase-3β Inhibitors” (Pharmaceuticals, 2024).

In data set [1] the target is GSK-3β (Homo sapiens, UniProt P49841). Nature of the data set: GSK-3β kinase HotSpot assay (Reaction Biology). It is filed as biochemical. To be noted: 10 μM ATP; for activity at 25 µM: 25 μM compound, duplicate, average, remaining kinase activity vs vehicle; for IC50: 10-point, triplicate, average ± SD.
Chain of GSK-3β (P49841 whole entry): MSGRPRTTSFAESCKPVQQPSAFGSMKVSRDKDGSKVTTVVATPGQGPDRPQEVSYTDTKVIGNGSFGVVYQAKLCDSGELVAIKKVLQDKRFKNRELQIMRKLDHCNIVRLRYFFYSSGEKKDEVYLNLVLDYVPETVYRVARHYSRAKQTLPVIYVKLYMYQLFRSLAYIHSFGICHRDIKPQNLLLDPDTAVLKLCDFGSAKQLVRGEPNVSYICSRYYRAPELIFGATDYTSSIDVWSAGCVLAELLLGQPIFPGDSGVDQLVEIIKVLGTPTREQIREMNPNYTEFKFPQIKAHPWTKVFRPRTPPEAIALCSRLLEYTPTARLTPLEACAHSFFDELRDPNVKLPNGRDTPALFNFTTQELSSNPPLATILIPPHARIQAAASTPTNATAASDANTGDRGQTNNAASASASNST
Data set [2] concerns the target human matrix metalloproteinase-12 (Homo sapiens, UniProt P39900). Nature of the data set: Matrix metalloproteinase-12 fluorogenic substrate assay. It is filed as biochemical. To be noted: for activity at 25 µM: 25 μM compound, read-out: MMP-12 % Activity @ 25 μM; for activity at 200 µM: 200 μM compound, read-out: MMP-12 % Activity @ 200 μM. The procedure: (§1) 5-(Heteroarylmethylene)hydantoins were evaluated as inhibitors for MMP-12 at fixed concentrations of 200 and 25 μM (Table 1). At 200 μM of 20–24, the activity of MMP-12 was ≤50% the activity of positive control; for compounds 21, 24, and 25 at 25 μM, the activity of MMP12 was 69–74% while the activity for the others was >80%. […] A select subset of the 5-(heteroarylmethylene)hydantoins were evaluated as inhibitors of human carbonic anhydrase II (hCAII) at 200 μM (Table 1). […] Finally, this same subset of 5-(heteroarylmethylene)hydantoins were evaluated as inhibitors of isolated S. aureus pyruvate carboxylase (SaPC) in a fixed-time assay (Table 1). No inhibitory activity was observed up to 1000 μM.
Assays for human matrix metalloproteinase-12 activity were performed in a 96-well plate format for a total reaction volume of 100 μL, in an assay modified from Day and Cohen. All assay reagents were prepared and maintained at 22 °C until warmed to 37 °C. The omniMMP fluorogenic substrate and MMP-12 enzyme were prepared in assay buffer (50 mM HEPES, 10 mM CaCl2, 0.05% Brij-35, pH of 7.52), and small molecule effectors were prepared as a solution in 50% DMSO, 50% assay buffer. The final concentration of enzyme in the 100 μL enzymatic reaction was 0.0083 U/μL. A known inhibitor, N-[(4’-bromo [1,1’-biphenyl]-4-yl)sulfonyl]-L-valine (PD166793), was included where noted at a final concentration of 100 μM. OmniMMP fluorogenic substrate was added to the 100 μL enzymatic reaction at a final concentration of 4 μM. For all experiments, 30 μL of enzyme stock solution was added to each well in a 96-well, flat-bottom, black polystyrene microplate (SantaCruz Biotechnology, Dallas, TX, USA), followed by the addition of 10 μL of the effectors (50% assay buffer, 50% DMSO for the uninhibited reaction, PD166793 for the inhibition). The 96-well plate was then incubated in a plate reader at 37 °C for 30 min; concurrently, the substrate solution was also warmed to 37 °C for 30 min. The enzymatic reaction was initiated by adding 60 μL of the omniMMP fluorogenic substrate solution. The change in fluorescence was then monitored for 30 min with excitation and emission wavelengths at 320 and 400 nm, respectively, every 46 s for a total of 40 measurements.

Data set [3] concerns the target human carbonic anhydrase II (hCAII) (Homo sapiens, UniProt P00918). Nature of the data set: Human carbonic anhydrase II p-nitrophenyl acetate assay. The format is biochemical. To be noted: 200 μM compound. On the procedure: as §1
Assays for human carbonic anhydrase II activity were performed in a 96-well plate format for a total reaction volume of 100 μL, in an assay modified from Day and Cohen. All assay reagents and solutions were prepared separately and maintained at 22 °C until warmed to 30 °C. All substrates, effectors, and enzyme were freshly dissolved and diluted in assay buffer containing 50 mM Tris (pH 8.0). The final concentration of the human carbonic anhydrase II enzyme was 200 nM. Where noted, acetazolamide was included at a final concentration of 10 μM. The substrate, p-nitrophenyl acetate, was added at a final concentration of 504 μM. For all experiments, 20 μL of enzyme stock solution was added to each well in a 96-well, flat-bottom, polystyrene microplate (Santa Cruz Biotechnology, Dallas, TX, USA), followed by the addition of 10 μL of the effectors (assay buffer for the uninhibited reaction, acetazolamide for the inhibition). The 96-well plate was then incubated in a plate reader at 30 °C for 10 min; concurrently, the substrate solution was also warmed to 30 °C for 10 min. The enzymatic reaction was initiated by adding 70 μL of the substrate solution (p-nitrophenyl acetate). The absorbance values were then measured at 405 nm every 30 s over a period of 20 min for a total of 40 measurements.

Data set [4] concerns the target T1, Staphylococcus aureus pyruvate carboxylase (SaPC) (Staphylococcus aureus, UniProt A0A0H3JRU9).
T1 sequence (A0A0H3JRU9 1-1150): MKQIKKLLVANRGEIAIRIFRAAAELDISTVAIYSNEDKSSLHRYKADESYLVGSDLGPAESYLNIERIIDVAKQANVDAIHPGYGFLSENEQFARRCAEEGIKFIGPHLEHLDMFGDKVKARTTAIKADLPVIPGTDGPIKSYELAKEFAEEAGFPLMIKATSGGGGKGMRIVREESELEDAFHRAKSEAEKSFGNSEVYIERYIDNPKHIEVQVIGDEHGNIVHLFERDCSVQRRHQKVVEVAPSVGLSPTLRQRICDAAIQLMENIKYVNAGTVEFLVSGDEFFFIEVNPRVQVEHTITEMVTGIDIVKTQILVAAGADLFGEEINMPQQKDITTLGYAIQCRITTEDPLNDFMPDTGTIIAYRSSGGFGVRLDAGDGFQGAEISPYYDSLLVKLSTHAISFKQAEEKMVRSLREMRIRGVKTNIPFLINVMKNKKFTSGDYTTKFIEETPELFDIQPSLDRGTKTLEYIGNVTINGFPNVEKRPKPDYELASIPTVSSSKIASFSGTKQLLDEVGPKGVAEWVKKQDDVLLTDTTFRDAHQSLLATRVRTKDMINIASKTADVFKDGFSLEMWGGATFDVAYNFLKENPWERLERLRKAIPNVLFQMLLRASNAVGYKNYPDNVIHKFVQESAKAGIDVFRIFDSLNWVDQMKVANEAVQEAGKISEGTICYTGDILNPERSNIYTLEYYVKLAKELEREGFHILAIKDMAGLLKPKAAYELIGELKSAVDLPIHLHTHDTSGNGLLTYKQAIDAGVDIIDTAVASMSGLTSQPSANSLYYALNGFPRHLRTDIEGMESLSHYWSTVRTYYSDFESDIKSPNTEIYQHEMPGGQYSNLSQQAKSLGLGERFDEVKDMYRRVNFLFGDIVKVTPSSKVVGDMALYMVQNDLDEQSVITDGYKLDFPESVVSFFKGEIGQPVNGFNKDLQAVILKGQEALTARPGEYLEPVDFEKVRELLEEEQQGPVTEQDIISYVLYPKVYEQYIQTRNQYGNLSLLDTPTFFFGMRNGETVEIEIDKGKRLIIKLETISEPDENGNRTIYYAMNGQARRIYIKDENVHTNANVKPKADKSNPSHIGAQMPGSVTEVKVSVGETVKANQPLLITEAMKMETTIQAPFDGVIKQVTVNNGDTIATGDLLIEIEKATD
Put plainly: biochemical. To be noted: isolated SaPC.

Where a name gives a salt, the structure may show the parent alone. Some results are limits rather than exact numbers.

Chain of human matrix metalloproteinase-12 (P39900 106-470): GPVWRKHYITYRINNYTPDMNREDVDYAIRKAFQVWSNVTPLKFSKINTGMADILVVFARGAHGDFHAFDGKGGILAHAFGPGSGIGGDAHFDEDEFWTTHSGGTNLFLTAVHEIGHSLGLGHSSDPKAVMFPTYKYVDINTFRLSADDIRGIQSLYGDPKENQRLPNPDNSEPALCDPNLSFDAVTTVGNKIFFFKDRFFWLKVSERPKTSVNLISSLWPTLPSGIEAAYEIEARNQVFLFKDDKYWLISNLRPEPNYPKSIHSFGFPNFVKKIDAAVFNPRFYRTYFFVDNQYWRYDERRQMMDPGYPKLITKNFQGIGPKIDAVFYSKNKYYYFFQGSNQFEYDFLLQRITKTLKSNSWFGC

For the molecule `O=C1NC(=O)/C(=C/c2csc3ccccc23)N1` [Compound 29, (Z)-5-[(3-Benzo[b]thiophenyl)methylene]-2,4-imidazolidinedione], the melting point is over 250 °C. In data set [1], the activity at 25 µM was 27.9%. Besides, in data set [2], the activity at 25 µM was found to be 98.1% and the activity at 200 µM was 88%. Also, the activity at 200 µM in data set [3] was 63%. For the same molecule, in data set [3] (200 µM), the “hCAII % Activity @ 200 μM” value is 62.7 ± 9.8%. The same molecule gave an IC50 in data set [4] of over 1 mM.

Consider `Cc1cccc(/C=C2\NC(=O)NC2=O)n1` [Compound 23, (Z)-5-[(6′-Methyl-2-pyridinyl)methylene]-2,4-imidazolidinedione-HCl], for which the activity at 25 µM in data set [1] stood at 28.4%; in data set [2], 86.4%. Moreover, the values for the IC50 in data set [1] and in data set [4] were 8.34 ± 0.27 µM and over 1 mM, respectively. In addition, the figures for the activity at 200 µM in data set [2] and in data set [3] were 46.5% and 88.9 ± 12.3%, respectively.

`O=C1NC(=O)/C(=C/c2cc(Cl)ccn2)N1` [Compound 25, (Z)-5-[(4′-Chloro-2-pyridinyl)methylene]-2,4-imidazolidinedione-HCl]: the activity at 25 µM was 15.4% in data set [1] and 73.9% in data set [2]. Moreover, the half-maximal inhibitory concentration (IC50) in data set [1] is 2.14 ± 0.18 µM; in data set [4], over 1 mM. The activity at 200 µM in data set [2] came to 50%; in data set [3], 57 ± 16.4%.

The molecule `O=C1NC(=O)/C(=C/c2ccc3ncccc3c2)N1` [Compound 28, (Z)-5-[(6′-Quinolinyl)methylene]-2,4-imidazolidinedione] yielded a melting point of over 250 °C. In data set [1], the activity at 25 µM turned out to be 22.5% and half-maximal inhibition (IC50) was put at 7.82 ± 0.12 µM. For the same molecule, in data set [2], the activity at 25 µM came to 81.8% and the activity at 200 µM stood at 61.6%.

The molecule `O=C1NC(=O)/C(=C/c2ccc3ccccc3n2)N1` [Compound 18, (Z)-5-[(2-Quinolinyl)methylene]-2,4-imidazolidinedione] gave a melting point of over 255 °C. Besides, the activity at 25 µM in data set [1] was determined as 32.9%. In addition, in data set [2], the activity at 25 µM turned out to be 94.1% and the activity at 200 µM turned out to be 57.6%. For the same molecule, in data set [4], the IC50 is over 1 mM.

In turn, `Cc1cccnc1/C=C1\NC(=O)NC1=O` [Compound 20, (Z)-5-[(3′-Methyl-2-pyridinyl)methylene]-2,4-imidazolidinedione] gave a melting point of 245 to 248 °C. Further, the activity at 25 µM in data set [1] came out at 31.6%. In addition, in data set [2], the activity at 25 µM amounted to 108% and the activity at 200 µM stood at 39.6%.

As for `COc1cccc(/C=C2\NC(=O)NC2=O)n1` [Compound 15, (Z)-5-[(6′-Methoxy-2-pyridinyl)methylene]-2,4-imidazolidinedione], the melting point was in the range of 249 to 251 °C. Also, in data set [1], the activity at 25 µM was 17.3% and 4.06 ± 0.3 µM corresponded to half-maximal inhibition (IC50). Moreover, in data set [2], the activity at 25 µM came to 87.5% and the activity at 200 µM is 74%. The activity at 200 µM in data set [3] worked out at 82.1 ± 11%. Besides, the IC50 in data set [4] is over 1 mM.

As to `O=C1NC(=O)/C(=C/c2ncccc2Cl)N1` [Compound 24, (Z)-5-[(3′-Chloro-2-pyridinyl)methylene]-2,4-imidazolidinedione-HCl], the activity at 25 µM in data set [1] came out at 44.6%; in data set [2], 69.1%. Further, the results for the activity at 200 µM in data set [2] and in data set [3] were 39.2% and 91.8 ± 14.7%, respectively. Further, the IC50 in data set [4] is over 1 mM.

As to `O=C1NC(=O)/C(=C/c2ccccn2)N1` [Compound 17, (Z)-5-[(2′-Pyridinyl)methylene]-2,4-imidazolidinedione], the melting point was in the range of 231 to 233 °C. Further, the activity at 25 µM in data set [1] turned out to be 55.4%.

With `O=C1NC(=O)/C(=C/c2cccc(Br)n2)N1` [Compound 27, (Z)-5-[(6′-Bromo-2-pyridinyl)methylene]-2,4-imidazolidinedione], the melting point is over 250 °C. Further, in data set [1], the activity at 25 µM is 17% and the half-inhibitory concentration (IC50) turned out to be 3.39 ± 0.16 µM. For the same molecule, in data set [2], the activity at 25 µM was 85.8% and the activity at 200 µM came out at 88.7%. Moreover, the activity at 200 µM in data set [3] worked out at 86.7 ± 12.1%. The molecule also returned an IC50 in data set [4] of over 1 mM.

`Cc1ccnc(/C=C2\NC(=O)NC2=O)c1` [Compound 21, (Z)-5-[(4′-Methyl-2-pyridinyl)methylene]-2,4-imidazolidinedione-HCl]: the activity at 25 µM is 42% in data set [1] and 71.6% in data set [2]. In addition, the figures for the activity at 200 µM in data set [2] and in data set [3] were 28.5% and 94.8 ± 12.8%, respectively. In data set [4], this molecule registered a 50% inhibitory concentration (IC50) of over 1 mM.

Regarding `O=C1NC(=O)/C(=C/c2cccnc2)N1` [Compound 19, (Z)-5-[(3′-Pyridinyl)methylene]-2,4-imidazolidinedione], the melting point was over 255 °C. Besides, the activity at 25 µM in data set [1] came out at 71.8%. Besides, in data set [2], the activity at 25 µM came out at 84.2% and the activity at 200 µM amounted to 50.6%. The activity at 200 µM in data set [3] turned out to be 88.9 ± 12.3%. The molecule further returned an IC50 in data set [4] of over 1 mM.

Molecule `O=C1NC(=O)/C(=C/c2ccc(Br)cn2)N1` [Compound 26, (Z)-5-[(5′-Bromo-2-pyridinyl)methylene]-2,4-imidazolidinedione] showed a melting point of over 255 °C. The activity at 25 µM in data set [1] worked out at 35.3%. Moreover, in data set [2], the activity at 25 µM is 98.6% and the activity at 200 µM is 72.9%.

With `Cc1ccc(/C=C2\NC(=O)NC2=O)nc1` [Compound 22, (Z)-5-[(5′-Methyl-2-pyridinyl)methylene]-2,4-imidazolidinedione], the melting point was over 250 °C. Moreover, in data set [1], the activity at 25 µM came out at 47%. Moreover, in data set [2], the activity at 25 µM was determined as 101% and the activity at 200 µM stood at 40.7%. Further, the activity at 200 µM in data set [3] was found to be 87.4 ± 11.8%. In data set [4], this molecule displayed an IC50 of over 1 mM.
